BindingDB's records for doi:10.1021/acs.jmedchem.7b00843 (Wuxi Apptec, 2017)

Experiment: Inhibition of DLK in CD-1 mouse DRG neuron assessed as axonal protection pre-incubated for 2 hrs before NGF deprivation for 16 to 20 hrs by Campenot chamber based fluorescence assay

EC50 | Structure (SMILES)
457 nM | Nc1ncc(-c2cc([C@H]3[C@@H]4CN(C5COC5)C[C@@H]43)n(CC3CC3)n2)cc1C(F)(F)F
574 nM | CC(C)n1nc(-c2cnc(N)c(OC(F)(F)F)c2)cc1[C@H]1[C@@H]2CN(C3COC3)C[C@@H]21
